Source: patent publication US9777005B2 (Takeda Pharmaceutical Company Limited, priority 2012, dated 2017)

Target: T1, human M1 receptor (hCHRM1) (Homo sapiens, UniProt P11229)
T1 construct: expressed in transfected cells; host or cells: CHO-K1
T1 sequence (P11229 1-460): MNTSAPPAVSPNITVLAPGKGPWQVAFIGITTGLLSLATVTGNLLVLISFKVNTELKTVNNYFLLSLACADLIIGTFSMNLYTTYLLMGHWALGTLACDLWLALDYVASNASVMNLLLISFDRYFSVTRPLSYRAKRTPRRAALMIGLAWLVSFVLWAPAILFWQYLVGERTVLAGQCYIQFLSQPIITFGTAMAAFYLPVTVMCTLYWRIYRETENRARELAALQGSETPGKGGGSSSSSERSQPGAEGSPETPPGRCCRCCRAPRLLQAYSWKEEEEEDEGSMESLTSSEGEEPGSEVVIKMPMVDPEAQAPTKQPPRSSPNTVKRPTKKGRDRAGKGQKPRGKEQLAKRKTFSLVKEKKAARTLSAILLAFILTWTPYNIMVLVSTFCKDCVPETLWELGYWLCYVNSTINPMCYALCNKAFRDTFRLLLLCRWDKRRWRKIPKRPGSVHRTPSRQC
Experiment: Measurement of M1 receptor positive allosteric modulator (M1PAM) activity, calcium fluorescence (FLIPRtetra) in CHO-K1 cells in the presence of acetylcholine at EC20
Format: cell-based
Conditions: in the presence of acetylcholine at EC20 (final 0.6 nM), CHO-K1 cells expressing hCHRM1; for EC50: inflection point of M1PAM activity, read-out: IP value; for activity (%) at 10 μM: test compound 10 μM
Procedure, shortened: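 PAM activity was measured as calcium flux by FLIPRtetra over 1 min after co-addition of compound and EC20 acetylcholine (final 0.6 nM) to Fluo-4-loaded hCHRM1 CHO-K1 cells. The response was scaled between DMSO (0%) and 1 μM acetylcholine (100%), and the inflection point of the concentration curve gives the IP value.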

| Compound | EC50 [nM] | activity (%) at 10 μM [%] |
| --- | --- | --- |
| O=C1c2c(ncnc2Oc2c(F)cc(F)cc2F)CN1Cc1ccc(-c2ccnnc2)cc1 [Example 369, 6-(4-(pyridazin-4-yl)benzyl)-4-(2,4,6-trifluorophenoxy)-6,7-dihydro-5H-pyrrolo[3,4-d]pyrimidin-5-one] | 54 | 103 |
| Cn1ccc(-c2ccc(CN3Cc4ccnc(OCC5CCCO5)c4C3=O)cc2)n1 (single isomer, unassigned) [Example 245, 2-(4-(1-methyl-1H-pyrazol-3-yl)benzyl)-4-((tetrahydrofuran-2-yl)methoxy)-1,2-dihydro-3H-pyrrolo[3,4-c]pyridin-3-one] | 57 | 101 |
| NC(=O)c1ccc(CN2Cc3ccnc(Oc4ccc(C(F)(F)F)cc4F)c3C2=O)cc1F [Example 438, 2-fluoro-4-((4-(2-fluoro-4-(trifluoromethyl)phenoxy)-3-oxo-1,3-dihydro-2H-pyrrolo[3,4-c]pyridin-2-yl)methyl)benzamide] | 14 | 101 |
| Cn1ccc(-c2ccc(CN3Cc4cccc(O[C@H]5CCCC[C@@H]5O)c4C3=O)cc2)n1 (relative stereo) [Example 35, 7-((trans-2-hydroxycyclohexyl)oxy)-2-(4-(1-methyl-1H-pyrazol-3-yl)benzyl)isoindolin-1-one] | 14 | 134 |
| O=C1c2c(ccnc2O[C@H]2CCCC[C@@H]2O)CN1Cc1ccc(Br)s1 (relative stereo) [Example 400, 2-((5-bromo-2-thienyl)methyl)-4-((trans-2-hydroxycyclohexyl)oxy)-1,2-dihydro-3H-pyrrolo[3,4-c]pyridin-3-one] | 56 | 88 |
| Cc1nn(C)cc1-c1ccc(CN2Cc3ccnc(OC4CCC4)c3C2=O)cc1 [Example 403, 4-(cyclobutyloxy)-2-(4-(1,3-dimethyl-1H-pyrazol-4-yl)benzyl)-1,2-dihydro-3H-pyrrolo[3,4-c]pyridin-3-one] | 57 | 102 |
| Cn1cc(-c2ccc(CN3Cc4cccc(Oc5c(F)cc(F)cc5C#N)c4C3=O)cc2)cn1 [Example 73] | 24 | 99 |
| 1,5-anhydro-2-deoxy-4-O-(3-oxo-2-(4-(1H-pyrazol-1-yl)benzyl)-2,3-dihydro-1H-isoindol-4-yl)-threo-pentitol [Example 241] | 13 | 101 |
| Cn1ccc(-c2ccc(CN3Cc4ccnc(OCC5CCCO5)c4C3=O)cc2)n1 (stereo not drawn) [Example 79, 2-(4-(1-methyl-1H-pyrazol-3-yl)benzyl)-4-((tetrahydrofuran-2-yl)methoxy)-1,2-dihydro-3H-pyrrolo[3,4-c]pyridin-3-one] | 29 | 114 |
| Cc1cc(-c2ccc(CN3Cc4ccnc(Oc5ccc(C#N)cc5F)c4C3=O)cc2)ccn1 [Example 368, 3-fluoro-4-((2-(4-(2-methylpyridin-4-yl)benzyl)-3-oxo-2,3-dihydro-1H-pyrrolo[3,4-c]pyridin-4-yl)oxy)benzonitrile] | 10 | 99 |
| Cn1cc(-c2ccc(CN3Cc4cccc(Oc5c(F)cc(N)cc5Cl)c4C3=O)cc2)cn1 [Example 11, 7-(4-amino-2-chloro-6-fluorophenoxy)-2-(4-(1-methyl-1H-pyrazol-4-yl)benzyl)isoindolin-1-one] | 65 | 102 |
| O=C1c2c(cccc2O[C@H]2CCC[C@@H]2O)CN1Cc1ccc(-n2cccn2)cc1 (relative stereo) [Example 54, 2-(4-(1H-pyrazol-1-yl)benzyl)-7-((trans-2-hydroxycyclopentyl)oxy)isoindolin-1-one] | 160 | 106 |
| O=C1c2c(ccnc2O[C@@H]2CCCC[C@H]2O)CN1Cc1c(F)cc(F)cc1F (single isomer, unassigned) [Example 315, 4-((trans-2-hydroxycyclohexyl)oxy)-2-(2,4,6-trifluorobenzyl)-1,2-dihydro-3H-pyrrolo[3,4-c]pyridin-3-one] | 6.6 | 101 |

Results, then the compound that gave them:

| EC50 [nM] | activity (%) at 10 μM [%] | Compound |
| --- | --- | --- |
| 30 | 102 | Cn1cc(-c2ccc(CN3Cc4ccnc(Oc5ccc(Cl)cc5F)c4C3=O)cc2)cn1 [Example 388, 4-(4-chloro-2-fluorophenoxy)-2-(4-(1-methyl-1H-pyrazol-4-yl)benzyl)-1,2-dihydro-3H-pyrrolo[3,4-c]pyridin-3-one] |
| 14 | 106 | Cc1cc(F)c(Oc2nccc3c2C(=O)N(Cc2ccc(-n4cnc(C)c4)cc2)C3)c(F)c1 [Example 428, 4-(2,6-difluoro-4-methylphenoxy)-2-(4-(4-methyl-1H-imidazol-1-yl)benzyl)-1,2-dihydro-3H-pyrrolo[3,4-c]pyridin-3-one] |
| 8 | 101 | Cc1nn(C)cc1-c1ccc(CN2Cc3ccnc(Oc4ccc(C(C)(C)O)cc4F)c3C2=O)cc1 [Example 412, 2-(4-(1,3-dimethyl-1H-pyrazol-4-yl)benzyl)-4-(2-fluoro-4-(2-hydroxypropan-2-yl)phenoxy)-1,2-dihydro-3H-pyrrolo[3,4-c]pyridin-3-one] |
| 65 | 99 | CC(Oc1nccc2c1C(=O)N(Cc1ccc(-c3cn(C)nn3)cc1F)C2)c1ccccc1F (stereo not drawn) [Example 334, 2-(2-fluoro-4-(1-methyl-1H-1,2,3-triazol-4-yl)benzyl)-4-(1-(2-fluorophenyl)ethoxy)-1,2-dihydro-3H-pyrrolo[3,4-c]pyridin-3-one] |
| 13 | 98 | Cn1ccc(-c2ccc(CN3Cc4ccnc(Oc5ccc(C(F)(F)F)cc5C#N)c4C3=O)cc2)n1 [Example 416, 2-((2-(4-(1-methyl-1H-pyrazol-3-yl)benzyl)-3-oxo-2,3-dihydro-1H-pyrrolo[3,4-c]pyridin-4-yl)oxy)-5-(trifluoromethyl)benzonitrile] |
| 4.3 | 106 | Cc1nn(C)cc1-c1ccc(CN2Cc3ccnc(OCc4ncccc4F)c3C2=O)c(F)c1 [Example 329, 2-(4-(1,3-dimethyl-1H-pyrazol-4-yl)-2-fluorobenzyl)-4-((3-fluoropyridin-2-yl)methoxy)-1,2-dihydro-3H-pyrrolo[3,4-c]pyridin-3-one] |
| 5.6 | 99 | Cn1cc(-c2ccc(CN3Cc4ccnc(Oc5ccc(C(C)(C)O)cc5F)c4C3=O)cc2)cn1 [Example 408, 4-(2-fluoro-4-(2-hydroxypropan-2-yl)phenoxy)-2-(4-(1-methyl-1H-pyrazol-4-yl)benzyl)-1,2-dihydro-3H-pyrrolo[3,4-c]pyridin-3-one] |
| 12 | 93 | Cn1cc(-c2ccc(CN3Cc4ccnc(Oc5ccc(C(F)(F)F)cc5F)c4C3=O)cc2)cn1 [Example 304, 4-(2-fluoro-4-(trifluoromethyl)phenoxy)-2-(4-(1-methyl-1H-pyrazol-4-yl)benzyl)-1,2-dihydro-3H-pyrrolo[3,4-c]pyridin-3-one] |
| 10 | 97 | Cc1nn(C)cc1-c1ccc(CN2Cc3ccnc(OCC(F)(F)c4ccccn4)c3C2=O)c(F)c1 [Example 347, 4-(2,2-difluoro-2-(pyridin-2-yl)ethoxy)-2-(4-(1,3-dimethyl-1H-pyrazol-4-yl)-2-fluorobenzyl)-1,2-dihydro-3H-pyrrolo[3,4-c]pyridin-3-one] |
| 7.8 | 103 | Cc1nn(C)cc1-c1ccc(CN2Cc3ccnc(Oc4ccc(C(F)F)cc4F)c3C2=O)c(F)c1 [Example 381, 4-(4-(difluoromethyl)-2-fluorophenoxy)-2-(4-(1,3-dimethyl-1H-pyrazol-4-yl)-2-fluorobenzyl)-1,2-dihydro-3H-pyrrolo[3,4-c]pyridin-3-one] |
| 24 | 106 | Cn1cc(-c2ccc(CN3Cc4ccnc(Oc5c(F)cccc5Cl)c4C3=O)cc2)nn1 [Example 231, 4-(2-chloro-6-fluorophenoxy)-2-(4-(1-methyl-1H-1,2,3-triazol-4-yl)benzyl)-1,2-dihydro-3H-pyrrolo[3,4-c]pyridin-3-one] |
| 29 | 94 | Cc1nn(C)cc1-c1ccc(CN2Cc3ccnc(OCc4ccccc4F)c3C2=O)c(F)c1 [Example 343, 2-(4-(1,3-dimethyl-1H-pyrazol-4-yl)-2-fluorobenzyl)-4-((2-fluorobenzyl)oxy)-1,2-dihydro-3H-pyrrolo[3,4-c]pyridin-3-one] |
| 7.1 | 109 | CC(O)c1ccc(Oc2nccc3c2C(=O)N(Cc2ccc(-c4cnn(C)c4)cc2)C3)c(F)c1 (stereo not drawn) [Example 394, 4-(2-fluoro-4-(1-hydroxyethyl)phenoxy)-2-(4-(1-methyl-1H-pyrazol-4-yl)benzyl)-1,2-dihydro-3H-pyrrolo[3,4-c]pyridin-3-one] |
| 33 | 98 | Cn1cc(-c2ccc(CN3Cc4cccc(Oc5c(F)cc(C#N)cc5F)c4C3=O)cn2)cn1 [Example 378, 3,5-difluoro-4-((2-((6-(1-methyl-1H-pyrazol-4-yl)pyridin-3-yl)methyl)-3-oxo-2,3-dihydro-1H-isoindol-4-yl)oxy)benzonitrile] |
